Source: patent US11771706B2, “Oral solutions comprising fludrocortisone acetate” (LABOMED PHARMACEUTICAL COMPANY S.A., priority 2020, dated 2023)

Tests used:
[1] = Storage stability of aqueous liquid compositions of fludrocortisone acetate (Example 1), HPLC; format: physicochemical; details: conclusion from Tables 1a-1c, 40° C., 75% RH, three months
Experimental: Storage conditions of temperature (40° C.) and relative humidity (75%) applied for a period of three months. Quantification of fludrocortisone acetate and its degradation impurities was performed by HPLC.

[2] = relative to cortisol; cited from earlier work

CC(=O)OCC(=O)[C@@]1(O)CC[C@H]2[C@@H]3CCC4=CC(=O)CC[C@]4(C)[C@@]3(F)[C@@H](O)C[C@@]21C [Fludrocortisone acetate]
stability of fludrocortisone acetate in aqueous compositions [1]: unstable and easily hydrolyzed
glucocorticoid potency [2]: 10 times
